Assay results published in patent EP1655608A1, “CFTR as a component of an autophagy signaling pathway, applications thereof to autophagic diseases, and determination of cystic fibrosis as an autophagic disease” (priority 2004, dated 2006).
Entries after “also recorded” stand apart in the source; their conditions may differ.

Key:
CFTR Cl^- channel [1] = biological target: CFTR Cl^- channel (Mus musculus, UniProt P26361); assay: Whole-cell patch-clamp Cl- currents in Sertoli cells; assay type: cell-based; design: endogenous in cells; host or cells: Sertoli 42GPA9 cell line (mouse)
Chain of CFTR Cl^- channel (Mus musculus, UniProt P26361) (P26361 whole entry): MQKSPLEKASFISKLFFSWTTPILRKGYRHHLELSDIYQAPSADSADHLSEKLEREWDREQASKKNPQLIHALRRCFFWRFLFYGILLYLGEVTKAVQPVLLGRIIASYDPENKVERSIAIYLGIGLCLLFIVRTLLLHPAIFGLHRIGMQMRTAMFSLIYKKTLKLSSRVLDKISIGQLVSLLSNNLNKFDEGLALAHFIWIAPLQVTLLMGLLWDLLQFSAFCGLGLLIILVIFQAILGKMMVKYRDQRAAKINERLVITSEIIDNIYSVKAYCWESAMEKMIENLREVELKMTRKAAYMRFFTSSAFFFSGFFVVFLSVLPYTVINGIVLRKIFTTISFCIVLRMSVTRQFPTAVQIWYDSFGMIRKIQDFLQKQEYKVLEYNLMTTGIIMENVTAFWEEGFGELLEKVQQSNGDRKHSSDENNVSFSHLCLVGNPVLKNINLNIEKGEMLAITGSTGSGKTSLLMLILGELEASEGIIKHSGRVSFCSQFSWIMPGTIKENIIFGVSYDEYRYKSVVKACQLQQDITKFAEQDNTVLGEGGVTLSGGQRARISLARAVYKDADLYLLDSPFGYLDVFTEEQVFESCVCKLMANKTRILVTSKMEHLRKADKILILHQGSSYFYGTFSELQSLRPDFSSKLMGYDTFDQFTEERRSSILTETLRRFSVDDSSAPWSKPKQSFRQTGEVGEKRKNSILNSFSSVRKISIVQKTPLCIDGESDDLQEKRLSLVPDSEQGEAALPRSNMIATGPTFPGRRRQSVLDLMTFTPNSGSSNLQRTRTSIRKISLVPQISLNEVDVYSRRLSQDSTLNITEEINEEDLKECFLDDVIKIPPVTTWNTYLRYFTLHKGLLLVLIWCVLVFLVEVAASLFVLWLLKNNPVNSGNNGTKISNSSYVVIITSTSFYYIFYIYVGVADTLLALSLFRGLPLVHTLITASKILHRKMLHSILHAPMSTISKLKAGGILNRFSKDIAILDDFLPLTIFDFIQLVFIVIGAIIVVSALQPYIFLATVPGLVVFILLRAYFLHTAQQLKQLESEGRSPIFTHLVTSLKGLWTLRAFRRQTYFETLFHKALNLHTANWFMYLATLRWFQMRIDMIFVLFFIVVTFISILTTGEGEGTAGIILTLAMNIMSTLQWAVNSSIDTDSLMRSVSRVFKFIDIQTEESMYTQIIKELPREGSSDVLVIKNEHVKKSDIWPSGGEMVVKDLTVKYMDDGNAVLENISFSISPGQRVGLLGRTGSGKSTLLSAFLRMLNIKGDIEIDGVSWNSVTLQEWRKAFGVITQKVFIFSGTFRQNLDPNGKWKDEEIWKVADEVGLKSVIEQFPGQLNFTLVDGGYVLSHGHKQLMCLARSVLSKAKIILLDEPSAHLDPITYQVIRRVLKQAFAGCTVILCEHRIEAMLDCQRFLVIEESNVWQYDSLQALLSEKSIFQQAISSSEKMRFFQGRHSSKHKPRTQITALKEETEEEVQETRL
Method: (§1) Whole cell currents were monitored from Sertoli cells, CFTR^-/- and WT renal epithelial cells with an RK 400 amplifier (Biologic, Münster, Germany) as previously described (40). The bath (extracellular) solution consisted of 140 mM NMDGCl (N-methyl-D-glucamine chloride), 5 mM D-Glucose, 1 mM CaCl2, and 10 mM HEPES, pH 7.4. Patch pipette (intracellular) solution contained 140 mM NMDGCl, 5 mM D-Glucose, 5 mM EGTA, 5 mM MgATP, and 10 mM HEPES, pH 7.4. Osmolarity of both solutions was adjusted to 280 mOSM by adding mannitol. These solutions were designed to study Cl^- currents because Cl^- is the sole permeant ion in these conditions and to prevent Ca^2+ activated Cl^- currents by the addition of EGTA in the patch solution. After establishment of whole cell configuration, cells were stimulated by the addition of Lindane (50 µM), FSK (10 µM), vehicle (Me2S0 or ethanol) in the absence or the presence of NPPB (0.1mM), DIDS (4,4'-diisothiocyanatostilbene-2,2'-disulfonic acid, 1 mM, Sigma), glibenclamide (0.1mM, Sigma) or PD98059 (10 µM) in the bath solution. The cell membrane potential was clamped at -50mV and 400 ms pulses were applied from -100 to +120 mV with increments of 20 mV every 2 s. To generate whole cell current-voltage (I-V) relationship, membrane currents resulting from voltage stimuli were recorded for at least 3 min and analysed using an IBM-AT-compatible computer equipped with Digidata 1200 interface (Axon Instruments) and pCLAMP software (versions 5.51 and 6.0, Axon Instruments), respectively. Statistics-Results are expressed as mean ± S.E. of n observations using the Student's t test.

p38 = p38 / Jun kinase activation by Western blotting of Sertoli cell lysates; assay type: cell-based, mouse; conditions: Anisomycin 10 µg/ml, 15 min; phosphorylation of p38 and MK2
Source text: (§2) After stripping, equal loadings of proteins were verified by reprobing the blots with anti-ERK1 (Santa Cruz Biotechnology).

Sertoli 42GPA9 cells = assay: Autophagic vacuolation of Sertoli cells (light, electron and confocal microscopy); assay type: cell-based, mouse
Method: Autophagy was induced either by starvation or by treatment with Lindane under nutrient-rich condition.
When bafilomycin A1 (BafA1, V-ATPase-specific inhibitor, 100 nM, Sigma); Park Davis Inhibitor PD98059 (MEK1-specific inhibitor, 10 µM, Cell Signaling), H89 (PKA inhibitor, 5 µM, Calbiochem), 3-Methyladenine (3 MA, autophagy-specific inhibitor, 10-30 mM, Sigma) or NPPB [5-nitro-2-(3-phenylpropylamino) benzoic acid, Cl^- channel blocker, 25 µM, Sigma] was used, it was added to the starvation medium for 90 min, prior to Lindane addition or nutrient deprivation.
The ultrastructural changes caused by Lindane or starvation in Sertoli and renal cells were analysed by transmission electron microscopy, as previously described (57). […] Cell pellets were then rinsed in cacodylate buffer, postfixed in 1% OsO4 for 1 h at 4°C, dehydrated through graded ethanol washes, and embedded in epoxy resin. Oriented […] sections were obtained with diamond knives, and representative areas were chosen for ultra-thin sectioning. […] 30-50 micrographs were taken randomly from each sample at primary magnification × 10,000.
Sertoli cells seeded on glass coverslips were transiently transfected with EGFP-Rab7 or MEK1^+-HA expression plasmids using Fugene 6 reagent (Roche), washed and allowed to recover overnight before addition of Lindane (50 µM). […] To determine the pH of the Lindane-induced vacuoles, living cells were stained with acridine-orange (5 µg/ml, Sigma), a membrane-permeable weak base whose fluorescence shifts from green at neutral pH to red in acidic compartments (59). 10 min later, cells were washed and directly observed under a confocal microscope.

renal cells = assay: Lindane-induced autophagic vacuolation of renal cells (electron microscopy); assay type: cell-based, mouse
Method: (§3) To address the importance of CFTR in autophagy, renal cells derived from distal tubules or the proximal convoluted tubules of Wild type (WT or CFTR^+/+) or CFTR deficient (CFTR^-/-) mice (40) were isolated and immortalized with the pSV3 neo vector, as described below (55).
The ultrastructural changes caused by Lindane or starvation in Sertoli and renal cells were analysed by transmission electron microscopy, as previously described (57). Briefly, control and Lindane-treated cells (50 µM, 24 h) were scraped from the culture dish in PBS EDTA 1mM, pelleted and fixed with ice-cold 2.5% glutaraldehyde (TAAB, #G004) in 0.1 M Na cacodylate, pH 7.4 for at least 1 h at 4°C. Cell pellets were then rinsed in cacodylate buffer, postfixed in 1% OsO4 for 1 h at 4°C, dehydrated through graded ethanol washes, and embedded in epoxy resin. Oriented […] sections were obtained with diamond knives, and representative areas were chosen for ultra-thin sectioning. Thin […] sections were mounted on copper mesh grids, stained with uranyl acetate and lead citrate, and examined on a JEOL 1200 EXII electron microscope. 30-50 micrographs were taken randomly from each sample at primary magnification × 10,000.

CFTR-EGFP = assay: Subcellular distribution of CFTR-EGFP by confocal microscopy; assay type: cell-based, hamster; conditions: BHK cells, Lindane 24 h, NH4Cl 5 mM in medium
Method: BHK-21 (Baby hamster kidney epithelial cells, ATCC) stably expressing CFTR-EGFP cell-line was maintained in Dulbecco's modified Eagle's medium (DMEM, GIBCO) containing 10% fetal calf serum (GIBCO).
Autophagy was induced either by starvation or by treatment with Lindane under nutrient-rich condition. For Lindane treatment, cells were serum-starved for 2-16 hours in DMEM/Ham's F12 (1:1, GIBCO #61965-026: F12 GIBCO #31765-027) supplemented with either 1% Insulin-Transferrin-SeleniumA (GIBCO #51300-044) or 0.1% bovine serum albumin (A7030, Sigma) and treated with Lindane (50 µM, Sigma, H4500).

p42^ERK2 and p44^ERK1 = assay: ERK activation by anti-phospho-ERK Western blotting of cell lysates; assay type: cell-based, mouse
Source text: as §2

CFTR Cl^- channel [2] = assay: Whole-cell patch-clamp Cl- currents in CFTR+/+ and CFTR-/- renal distal cells; assay type: cell-based, mouse
Source text: as §3
Whole cell currents were monitored from Sertoli cells, CFTR^-/- and WT renal epithelial cells with an RK 400 amplifier (Biologic, Münster, Germany) as previously described (40). The bath (extracellular) solution consisted of 140 mM NMDGCl (N-methyl-D-glucamine chloride), 5 mM D-Glucose, 1 mM CaCl2, and 10 mM HEPES, pH 7.4. Patch pipette (intracellular) solution contained 140 mM NMDGCl, 5 mM D-Glucose, 5 mM EGTA, 5 mM MgATP, and 10 mM HEPES, pH 7.4. Osmolarity of both solutions was adjusted to 280 mOSM by adding mannitol. […] To generate whole cell current-voltage (I-V) relationship, membrane currents resulting from voltage stimuli were recorded for at least 3 min and analysed using an IBM-AT-compatible computer equipped with Digidata 1200 interface (Axon Instruments) and pCLAMP software (versions 5.51 and 6.0, Axon Instruments), respectively. Statistics-Results are expressed as mean ± S.E. of n observations using the Student's t test.

CFTR Δex10 = assay: Whole-cell patch-clamp Cl- currents in renal proximal PCT cells; assay type: cell-based, mouse
Method: as §1

Cl[C@H]1[C@H](Cl)[C@@H](Cl)[C@@H](Cl)[C@H](Cl)[C@H]1Cl [Lindane, γ-hexachlorocyclohexane]
anion selectivity sequence of induced currents (CFTR Cl^- channel [1]): Br^-≥ Cl^->>I^- | Cl^- conductance across plasma membrane (CFTR Cl^- channel [1]; Lindane 50 µM): increased within minutes | reversal potential of induced currents (CFTR Cl^- channel [1]; symmetrical Cl- solutions): ~ 0 mV | effect on Anisomycin-induced p38 activity (p38): not ascribed to p38 inhibition | size of autophagic vacuoles (Sertoli 42GPA9 cells; Lindane 50 µM, 24 h, electron microscopy): 2-20 µm^2 | autophagic vacuoles observed per cell (Sertoli 42GPA9 cells; Lindane 50 µM, 24 h, electron microscopy, n = 20 cells, average): ~ 50 | induction of vacuolation / autophagy by the chemical alone (Sertoli 42GPA9 cells; Lindane 50 µM, DDT 1.8 µM, Bϕ 90 µM, PCP 15 µM, SB203580 10 µM, NH4Cl 5 mM, 24 h): powerful activator of autophagy | time of maximal vacuolation (Sertoli 42GPA9 cells; Lindane treatment): 24 to 48 h | reversibility of vacuolation (Sertoli 42GPA9 cells; upon removal of the chemical): reversible upon Lindane removal | autophagic vacuolation in CFTR-expressing renal cells (renal cells; CFTR^+/+ renal cells): could be generalized to renal cells, provided CFTR was expressed | response in renal cells lacking CFTR expression (renal cells; CFTR^-/- renal cells): dramatic accumulation of lamellar structures and little if any large autophagic vacuoles | distribution of CFTR (CFTR-EGFP): redistributed from plasma membrane to vacuoles | ERK stimulation in CFTR^-/- cells (p42^ERK2 and p44^ERK1; CFTR^-/- renal cells): still stimulated | duration of ERK activation (p42^ERK2 and p44^ERK1; Sertoli cells, Lindane): more than 24 h | ERK activation in Sertoli cells (p42^ERK2 and p44^ERK1; Sertoli cells, Lindane 50 µM, DDT 1.8 µM, Bϕ 90 µM, PCP 15 µM): rapid and sustained activation of both p42^ERK2 and p44^ERK1; also recorded: induced the activation of both p42^ERK2 and p44^ERK1 | induction of Cl^- currents in CFTR^+/+ renal distal cells (CFTR Cl^- channel [2]; Lindane 50 µM): induction of Cl^- currents | reversed potential of induced currents (CFTR Cl^- channel [2]; renal distal cells, n = 8): ~ 0 mV | induction of Cl- current in PCT cells (CFTR Δex10; CFTR^+/+ PCT cells, Lindane 50 µM, forskolin 10 µM): induced a Cl- current | Lindane-induced Cl- current in CFTR^-/- PCT cells (CFTR Δex10; CFTR^-/- PCT cells): total inhibition | anion selectivity sequence of induced current (CFTR Δex10; PCT cells): Br^-≥ Cl^- >>I^- | reversal potential of induced current (CFTR Δex10; PCT cells): ~ 0 mV
